In publication PMC12328218 (Nature, 2025):
Where two headings read alike, the source gives them in different places.

Key:
Format in all cases: cell-based, Mycobacterium tuberculosis
[1] = test system: JNJ-6640-treated M. tuberculosis
[2] = test system: M. tuberculosis CRISPRi purF knockdown strains
[3] = test system: M. tuberculosis H37Rv CRISPRi PurF low knockdown strain; test: microbe, parasite or virus in culture

SMILES: Nc1ncnc2[nH]cnc12 [Adenine]
- effect of nucleobase addition on JNJ-6640-treated M. tuberculosis [1]: no substantial effect
- effect on rescue of purF knockdown [2]: limited effect

SMILES: COc1nc2ccc(Br)cc2cc1[C@@H](c1ccccc1)[C@@](O)(CCN(C)C)c1cccc2ccccc12 [Bedaquiline]
- EC50 [3]: 44 nM
- change in susceptibility following purF transcript knockdown [3]: no change
- EC50 ([3]; Mycobacterium tuberculosis, H37RV): 61 nM

SMILES: Nc1nc2nc[nH]c2c(=O)[nH]1 [Guanine]
- effect of nucleobase addition on JNJ-6640-treated M. tuberculosis [1]: no substantial effect

SMILES: O=c1[nH]cnc2nc[nH]c12 [Hypoxanthine]
- effect of nucleobase addition on JNJ-6640-treated M. tuberculosis [1]: rescue
- rescue of JNJ-6640 activity [1]: rescues JNJ-6640 activity
- concentration partially rescuing inhibition of de novo purine biosynthesis [2]: exceeding 0.1 mM

SMILES: O=c1[nH]c(=O)c2nc[nH]c2[nH]1 [Xanthine]
- effect of nucleobase addition on JNJ-6640-treated M. tuberculosis [1]: no substantial effect
